test: Antioxidant activity in brain homogenate assessed as drug level require to inhibit 50% of spontaneous lipid peroxidation relative to control; format: functional, tissue-based

SMILES | Activity
COc1ccc(CCC(=O)c2c(OC)cc(O)c([C@@H](c3ccc(O)cc3)[C@@H](C)[C@H](C)Cc3ccc(O)cc3)c2O)cc1 (relative stereo) | 5.5 µg/mL
COc1ccc(CCC(=O)c2c(O)cc(O)cc2OC)cc1 | 6.9 µg/mL
COc1cc(O)c(C(=O)CCc2ccc(O)cc2)c(OC)c1 | 4.7 µg/mL
Cc1c(C)c2c(c(C)c1O)CC[C@@](C)(CCC[C@H](C)CCC[C@H](C)CCCC(C)C)O2 | 12.1 µg/mL
COc1ccc(CCC(=O)c2c(OC)cc(O)c([C@H](c3ccc(O)cc3)[C@@H](C)[C@H](C)Cc3ccc(O)cc3)c2O)cc1 (relative stereo) | 4.8 µg/mL
O=c1c(O)c(-c2ccc(O)c(O)c2)oc2cc(O)cc(O)c12 | 7.6 µg/mL

Reference: ChEMBL document CHEMBL1144132, “Dihydrochalcones and flavonolignans from Iryanthera lancifolia” (J Nat Prod, 1999)
